{
  "source": "patent US20120149576A1",
  "about": "“METHOD FOR CULTIVATING CROP PLANT” (SUMITOMO CHEMICAL COMPANY, LIMITED, priority 2009, published 2012)",
  "key": {"[1]": {"system": "wild-type SR-1 tobacco leaf discs", "test": "Resistance test using leaf discs on MS agar medium supplemented with saflufenacil", "format": "cell-based", "settings": "for Score of adverse effects (browning or chlorosis) on leaf disc / Ratio of green area to leaf disc area (%): Wild-type SR-1; for Score of adverse effects (browning or chlorosis) on leaf disc / Observed adverse effect on leaf discs: day 8; for Score of adverse effects (browning or chlorosis) on leaf disc: 5 plants; for Ratio of green area to leaf disc area (%): image analysis of FIG. 1, day 8; for Observed adverse effect on leaf discs: wild-type SR-1 tobacco leaves", "experimental": "(§1) Homozygote seeds of the recombinant tobacco lines 1609soy#25 and P023, which are described in EP1598423, and progeny seeds of the recombinant tobacco line P-6-1, which is also described in EP1598423, were aseptically sown on MS agar medium supplemented with 100 mg/L kanamycin and screened for plants with kanamaycin resistance. Leaf discs were prepared by cutting true leaves of the selected plants at 1 month after sowing, and placed on MS agar medium supplemented with 0.01 ppm, 0.03 ppm or 0.10 ppm saflufenacil. As negative control, seeds of wild-type SR-1 tobacco plants were aseptically sown on MS agar medium and, similarly, leaf discs were prepared by cutting true leaves of the plants at 1 month after sowing, and placed on MS agar medium supplemented with 0.01 ppm, 0.03 ppm or 0.10 ppm saflufenacil.\n(§2) The leaf discs were prepared from 5 individual plants for each experimental plot. Scoring evaluation was conducted according to the degrees of adverse effects manifested as browning or chlorosis. The scoring criteria are as follows:\n(§3) In the photograph shown in FIG. 1, the green-colored portions were color extracted using the image analysis software “Win ROOF ver.6.1.0” (MITANI Corporation) and their area was quantified. This was then divided by the area calculated by subtracting the area of the medium from the entire area of the image, thereby calculating the percentage of the area of the green-colored portions to the area of the leaf disc."}, "[2]": {"system": "recombinant tobacco line 1609soy#25 leaf discs", "test": "Resistance test using leaf discs on MS agar medium supplemented with saflufenacil", "format": "cell-based", "settings": "for Score of adverse effects (browning or chlorosis) on leaf disc / Ratio of green area to leaf disc area (%): 1609soy#25; for Score of adverse effects (browning or chlorosis) on leaf disc / Observed adverse effect on leaf discs: day 8; for Score of adverse effects (browning or chlorosis) on leaf disc: 5 plants; for Ratio of green area to leaf disc area (%): image analysis of FIG. 1, day 8; for Observed adverse effect on leaf discs: recombinant tobacco line 1609soy#25", "experimental": "1609soy#25: DNA encoding the amino acid sequence of SEQ ID NO:1;\nas §1, §2, §3"}, "[3]": {"system": "recombinant tobacco lines 1609soy#17 and #25, 1584soy#16, P023, and 35S-2", "test": "Resistance test using a spreader: tobacco", "format": "in vivo", "settings": "spray application with automatic spreader; about two weeks later; homozygotes of 1609soy#17, #25, 1584soy#16, P023, 35S-2", "excerpt": "Homozygote seeds of the recombinant tobacco lines 1609soy#17 and #25, 1584soy#16, […], and 35S-2, which are described in EP1598423, are aseptically sown on MS agar medium. Subsequently, the germinated individuals are transferred to culture pots charged with Kureha soil (Kureha Chemicals) and acclimated to the outdoor environment in the phytotron. They are than grown for two weeks in the phytotron. As negative control, seeds of wild-type SR-1 tobacco plants are aseptically sown on MS agar medium and, similarly grown in the phytotron. The plants thus obtained are subjected to the saflufenacil application test. The spray solution is prepared by dissolving saflufenacil in an appropriate solvent, adding an adjuvant, and diluting it with water. Application of the spray solution to the plants are conducted using an wheeled automatic spreader (Mamba Architect Office), by homogenously spraying 20 mL of the solution onto the seedlings of the recombinant and wild-type tobacco plants placed within a 0.9 square-meter area to which the solution is applied. About two weeks later, the susceptibility of the tested recombinant tobacco plants to saflufenacil is compared with that of the wild-type SR-1 tobacco plants to saflufenacil. […] Scoring evaluation is conducted according to the degrees of adverse effects manifested as death of individual plants, or browning or chlorosis of the leaves or stems."}, "[4]": {"system": "recombinant tobacco line P023 leaf discs", "test": "Resistance test using leaf discs on MS agar medium supplemented with saflufenacil", "format": "cell-based", "settings": "for Score of adverse effects (browning or chlorosis) on leaf disc / Ratio of green area to leaf disc area (%): P023; for Score of adverse effects (browning or chlorosis) on leaf disc / Observed adverse effect on leaf discs: day 8; for Score of adverse effects (browning or chlorosis) on leaf disc: 5 plants; for Ratio of green area to leaf disc area (%): image analysis of FIG. 1, day 8; for Observed adverse effect on leaf discs: recombinant tobacco line P023", "experimental": ": DNA encoding the amino acid sequence of SEQ ID NO:3; Homozygote seeds of the recombinant tobacco lines 1609soy#25 and […], which are described in EP1598423, and progeny seeds of the recombinant tobacco line P-6-1, which is also described in EP1598423, were aseptically sown on MS agar medium supplemented with 100 mg/L kanamycin and screened for plants with […] resistance. Leaf discs were prepared by cutting true leaves of the selected plants at 1 month after sowing, and placed on MS agar medium supplemented with 0.01 ppm, 0.03 ppm or 0.10 ppm saflufenacil. As negative control, seeds of wild-type SR-1 tobacco plants were aseptically sown on MS agar medium and, similarly, leaf discs were prepared by cutting true leaves of the plants at 1 month after sowing, and placed on MS agar medium supplemented with 0.01 ppm, 0.03 ppm or 0.10 ppm saflufenacil. […] The leaf discs were prepared from 5 individual plants for each experimental plot. Scoring evaluation was conducted according to the degrees of adverse effects manifested as browning or chlorosis. The scoring criteria are as follows: In the photograph shown in FIG. 1, the green-colored portions were color extracted using the image analysis software “Win ROOF ver.6.1.0” (MITANI Corporation) and their area was quantified. This was then divided by the area calculated by subtracting the area of the medium from the entire area of the image, thereby calculating the percentage of the area of the green-colored portions to the area of the leaf disc."}, "[5]": {"system": "recombinant soybean lines J16, J18, J26 and J28", "test": "Resistance test using a spreader: soybean", "format": "in vivo", "settings": "spray application as in Example 2, about two weeks later", "experimental": "Seeds of the T2 generation of the recombinant soybean lines J16, […], J26 and J28, which are described in US20060009361, are aseptically sown in the culture pots charged with Kureha soil and grown for about 3 weeks in the phytotron. As negative control, seeds of a wild-type soybean (cv. Jack) are similarly grown in the phytotron. The plants thus obtained are subjected to the saflufenacil application test. The application test is conducted according to the method described above in Example 2. About two weeks later, the susceptibility of the tested recombinant soybean plants to saflufenacil is compared with that of the wild-type soybean plants (cv. Jack) to saflufenacil."}, "[6]": {"system": "recombinant tobacco line P-6-1 (progeny) leaf discs", "test": "Resistance test using leaf discs on MS agar medium supplemented with saflufenacil", "format": "cell-based", "settings": "for Score of adverse effects (browning or chlorosis) on leaf disc / Ratio of green area to leaf disc area (%): P-6-1; for Score of adverse effects (browning or chlorosis) on leaf disc: 5 plants; for Ratio of green area to leaf disc area (%): image analysis of FIG. 1, day 8", "experimental": "P-6-1; DNA encoding the amino acid sequence of SEQ ID NO:1 and DNA encoding the amino acid sequence of SEQ ID NO:3;\nas §1, §2, §3"}},
  "data": [
    {"smiles": "CC(C)N(C)S(=O)(=O)NC(=O)c1cc(-n2c(=O)cc(C(F)(F)F)n(C)c2=O)c(F)cc1Cl", "note": "[Saflufenacil, N′-{2-chloro-4-fluoro-5-[1,2,3,6-tetrahydro-3-methyl-2,6-dioxo-4-(trifluoromethyl)pyrimidine-1-yl]benzoyl}-N-isopropyl-N-methyl sulfamide]", "values": [
      {"measurement": "Score of adverse effects (browning or chlorosis) on leaf disc", "setting": "[1]; saflufenacil 0.01 ppm", "result": 2.0},
      {"measurement": "Ratio of green area to leaf disc area (%)", "setting": "[1]; saflufenacil 0.01 ppm", "result": 77, "unit": "%"},
      {"measurement": "Score of adverse effects (browning or chlorosis) on leaf disc", "setting": "[1]; saflufenacil 0.03 ppm", "result": 1.0},
      {"measurement": "Ratio of green area to leaf disc area (%)", "setting": "[1]; saflufenacil 0.03 ppm", "result": 20, "unit": "%"},
      {"measurement": "Score of adverse effects (browning or chlorosis) on leaf disc", "setting": "[1]; saflufenacil 0.10 ppm", "result": 0.2},
      {"measurement": "Ratio of green area to leaf disc area (%)", "setting": "[1]; saflufenacil 0.10 ppm", "result": 2, "unit": "%"},
      {"measurement": "Observed adverse effect on leaf discs", "setting": "[1]; 0.01 ppm", "result": "partial browning"},
      {"measurement": "Observed adverse effect on leaf discs", "setting": "[1]; 0.10 ppm", "result": "overall chlorosis"},
      {"measurement": "Score of adverse effects (browning or chlorosis) on leaf disc", "setting": "[2]; saflufenacil 0.01 ppm", "result": 3.0},
      {"measurement": "Ratio of green area to leaf disc area (%)", "setting": "[2]; saflufenacil 0.01 ppm", "result": 85, "unit": "%"},
      {"measurement": "Score of adverse effects (browning or chlorosis) on leaf disc", "setting": "[2]; saflufenacil 0.03 ppm", "result": 2.0},
      {"measurement": "Ratio of green area to leaf disc area (%)", "setting": "[2]; saflufenacil 0.03 ppm", "result": 80, "unit": "%"},
      {"measurement": "Score of adverse effects (browning or chlorosis) on leaf disc", "setting": "[2]; saflufenacil 0.10 ppm", "result": 1.0},
      {"measurement": "Ratio of green area to leaf disc area (%)", "setting": "[2]; saflufenacil 0.10 ppm", "result": 8, "unit": "%"},
      {"measurement": "Observed adverse effect on leaf discs", "setting": "[2]; 0.01 ppm", "result": "no adverse effect"},
      {"measurement": "Observed adverse effect on leaf discs", "setting": "[2]; 0.03 ppm", "result": "partial browning"},
      {"measurement": "Observed adverse effect on leaf discs", "setting": "[2]; 0.10 ppm", "result": "overall browning"},
      {"measurement": "Susceptibility of recombinant tobacco plants to saflufenacil compared with wild-type SR-1", "setting": "[3]", "result": "lower susceptibility"},
      {"measurement": "Score of adverse effects (browning or chlorosis) on leaf disc", "setting": "[4]; saflufenacil 0.01 ppm", "result": 3.0},
      {"measurement": "Ratio of green area to leaf disc area (%)", "setting": "[4]; saflufenacil 0.01 ppm", "result": 89, "unit": "%"},
      {"measurement": "Score of adverse effects (browning or chlorosis) on leaf disc", "setting": "[4]; saflufenacil 0.03 ppm", "result": 3.0},
      {"measurement": "Ratio of green area to leaf disc area (%)", "setting": "[4]; saflufenacil 0.03 ppm", "result": 86, "unit": "%"},
      {"measurement": "Score of adverse effects (browning or chlorosis) on leaf disc", "setting": "[4]; saflufenacil 0.10 ppm", "result": 2.0},
      {"measurement": "Ratio of green area to leaf disc area (%)", "setting": "[4]; saflufenacil 0.10 ppm", "result": 51, "unit": "%"},
      {"measurement": "Observed adverse effect on leaf discs", "setting": "[4]; 0.10 ppm", "result": "partial chlorosis"},
      {"measurement": "Observed adverse effect on leaf discs", "setting": "[4]; up to 0.03 ppm", "result": "no adverse effect"},
      {"measurement": "Susceptibility of recombinant soybean plants to saflufenacil compared with wild-type soybean (cv. Jack)", "setting": "[5]", "result": "lower susceptibility"},
      {"measurement": "Score of adverse effects (browning or chlorosis) on leaf disc", "setting": "[6]; saflufenacil 0.01 ppm, day 8", "result": 3.0},
      {"measurement": "Ratio of green area to leaf disc area (%)", "setting": "[6]; saflufenacil 0.01 ppm", "result": 87, "unit": "%"},
      {"measurement": "Score of adverse effects (browning or chlorosis) on leaf disc", "setting": "[6]; saflufenacil 0.03 ppm, day 8", "result": 2.6},
      {"measurement": "Ratio of green area to leaf disc area (%)", "setting": "[6]; saflufenacil 0.03 ppm", "result": 78, "unit": "%"},
      {"measurement": "Score of adverse effects (browning or chlorosis) on leaf disc", "setting": "[6]; saflufenacil 0.10 ppm, day 8", "result": 3.0},
      {"measurement": "Ratio of green area to leaf disc area (%)", "setting": "[6]; saflufenacil 0.10 ppm", "result": 83, "unit": "%"},
      {"measurement": "Observed adverse effect on leaf discs", "setting": "[6]; progeny plants of recombinant tobacco line P-6-1, 0.10 ppm, day 8", "result": "no adverse effect"}
    ]}
  ]
}
